In patent US12281225B2, “Process for preparing stable polymers containing vinylimidazole” (BASF SE, priority 2018, dated 2025):

Assays:
[1] = Physical stability; visual assessment (color, turbidity, phase separation); type: physicochemical; parameters: key: ++: no discernible change with respect to color, turbidity or phase separation; +: marginal change in color number, somewhat increased Tyndall effect but no turbidity; 0: easily discernible increase in color number and moderate turbidity−no phase separation; −: turbidity and change in color number readily discernible by visual assessment; −−: strong color change with strong turbidity and incipient phase separation
Procedure, shortened: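 Samples were inspected visually for color, turbidity and phase separation and scored on a five-step scale. Scores run from ++ (no discernible change) to −− (strong color change, strong turbidity, incipient phase separation).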

[2] = Iodine color number according to DIN 6162:2014-09; type: physicochemical
[3] = Analysis of active substance: preservative concentration before and after storage in VI-containing polymer solution; type: physicochemical; conditions: for active-substance concentration, 0 d, RT: before storage; for active-substance concentration, 14 d, 40° C.: storage 14 d at 40° C.; for active-substance concentration, 28 d, 40° C.: storage 28 d at 40° C.; for active-substance concentration, 60 d 40° C.: storage 60 d at 40° C.
Procedure, shortened: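 Preservatives (MIT, BIT, CMIT, OIT, DCOIT, iodopropynyl butyl carbamate) in aqueous vinylpyrrolidone–vinylimidazole copolymer solution quantified after dilution by isocratic RP18 chromatography with UV detection, using an acid-methanol eluent.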

[4] = tested on: Bacteria: Escherichia coli, Staphylococcus aureus, Pseudomonas aeruginosa, Pseudomonas putida, Burkholderia cepacia, Alcaligenes faecalis; assay: Preservation test with periodic inoculation, bacteria assessment; type: cell-based; conditions: sample stored 60 d at 40° C.
Procedure, shortened: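 Polymer samples (25 g) containing preservative were inoculated weekly, four times, with 10^9/ml bacterial or yeast mixtures (0.5 ml). Weekly streaks on agar were scored semiquantitatively (−− to ++) after 3 days at 25 °C, on fresh samples and on samples stored 60 days at 40 °C.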

[5] = Polymer P5 (HP56) with stabilizer

Physical stability, 60 d 40° C.* ([1]; Polymer P1 with stabilizer): −− | Physical stability, 60 d 40° C.* ([1]; Polymer P2 with stabilizer): −− | Physical stability, 60 d 40° C.* ([1]; Polymer P3 with stabilizer): −− | Physical stability, 60 d 40° C.* ([1]; Polymer P4 with stabilizer): − | Physical stability, 60 d 40° C.* [1, 5]: −− | Physical stability, 60 d 40° C.* ([1]; Polymer P6 with stabilizer): −− | Physical stability, 60 d 40° C.* ([1]; Polymer P7 with stabilizer): −− | Physical stability, 60 d 40° C.* ([1]; Polymer P8 with stabilizer): −− | Physical stability, 60 d 40° C.* ([1]; Polymer P9 with stabilizer): − | Iodine color number, 60 d 40° C. ([2]; Polymer P1 with stabilizer): 6.2 | Iodine color number, start ([2]; Polymer P1 with stabilizer): 3.0 | Iodine color number, 60 d 40° C. ([2]; Polymer P2 with stabilizer): 8.1 | Iodine color number, start ([2]; Polymer P2 with stabilizer): 3.1 | Iodine color number, 60 d 40° C. ([2]; Polymer P3 with stabilizer): 9.1 | Iodine color number, start ([2]; Polymer P3 with stabilizer): 3.4 | Iodine color number, 60 d 40° C. ([2]; Polymer P4 with stabilizer): 8.9 | Iodine color number, start ([2]; Polymer P4 with stabilizer): 3.4 | Iodine color number, 60 d 40° C. [2, 5]: 8.7 | Iodine color number, start [2, 5]: 3.6 | Iodine color number, 60 d 40° C. ([2]; Polymer P6 with stabilizer): 8.4 | Iodine color number, start ([2]; Polymer P6 with stabilizer): 3.6 | Iodine color number, 60 d 40° C. ([2]; Polymer P7 with stabilizer): 8.4 | Iodine color number, start ([2]; Polymer P7 with stabilizer): 3.6 | Iodine color number, 60 d 40° C. ([2]; Polymer P8 with stabilizer): 8.9 | Iodine color number, start ([2]; Polymer P8 with stabilizer): 3.4 | Iodine color number, 60 d 40° C. ([2]; Polymer P9 with stabilizer): 14.7 | Iodine color number, start ([2]; Polymer P9 with stabilizer): 3.9 | active-substance concentration, 0 d, RT ([3]; in Polymer P1): 300 ppm | active-substance concentration, 14 d, 40° C. ([3]; in Polymer P1): 244 ppm | active-substance concentration, 28 d, 40° C. ([3]; in Polymer P1): 183 ppm | active-substance concentration, 60 d 40° C. ([3]; in Polymer P1): 94 ppm | active-substance concentration, 0 d, RT ([3]; in Polymer P2): 300 ppm | active-substance concentration, 14 d, 40° C. ([3]; in Polymer P2): 244 ppm | active-substance concentration, 28 d, 40° C. ([3]; in Polymer P2): 195 ppm | active-substance concentration, 60 d 40° C. ([3]; in Polymer P2): 109 ppm | active-substance concentration, 0 d, RT ([3]; in Polymer P3): 300 ppm | active-substance concentration, 14 d, 40° C. ([3]; in Polymer P3): 232 ppm | active-substance concentration, 28 d, 40° C. ([3]; in Polymer P3): 183 ppm | active-substance concentration, 60 d 40° C. ([3]; in Polymer P3): 112 ppm | active-substance concentration, 0 d, RT ([3]; in Polymer P4): 300 ppm | active-substance concentration, 14 d, 40° C. ([3]; in Polymer P4): 246 ppm | active-substance concentration, 28 d, 40° C. ([3]; in Polymer P4): 198 ppm | active-substance concentration, 60 d 40° C. ([3]; in Polymer P4): 123 ppm | active-substance concentration, 0 d, RT ([3]; in Polymer P5 (HP56)): 300 ppm | active-substance concentration, 14 d, 40° C. ([3]; in Polymer P5 (HP56)): 230 ppm | active-substance concentration, 28 d, 40° C. ([3]; in Polymer P5 (HP56)): 180 ppm | active-substance concentration, 60 d 40° C. ([3]; in Polymer P5 (HP56)): 94 ppm | active-substance concentration, 0 d, RT ([3]; in Polymer P6): 300 ppm | active-substance concentration, 14 d, 40° C. ([3]; in Polymer P6): 222 ppm | active-substance concentration, 28 d, 40° C. ([3]; in Polymer P6): 184 ppm | active-substance concentration, 60 d 40° C. ([3]; in Polymer P6): 98 ppm | active-substance concentration, 0 d, RT ([3]; in Polymer P7): 300 ppm | active-substance concentration, 14 d, 40° C. ([3]; in Polymer P7): 228 ppm | active-substance concentration, 28 d, 40° C. ([3]; in Polymer P7): 189 ppm | active-substance concentration, 60 d 40° C. ([3]; in Polymer P7): 106 ppm | active-substance concentration, 0 d, RT ([3]; in Polymer P8): 300 ppm | active-substance concentration, 14 d, 40° C. ([3]; in Polymer P8): 230 ppm | active-substance concentration, 28 d, 40° C. ([3]; in Polymer P8): 180 ppm | active-substance concentration, 60 d 40° C. ([3]; in Polymer P8): 94 ppm | active-substance concentration, 0 d, RT ([3]; in Polymer P9): 300 ppm | active-substance concentration, 14 d, 40° C. ([3]; in Polymer P9): 219 ppm | active-substance concentration, 28 d, 40° C. ([3]; in Polymer P9): 165 ppm | active-substance concentration, 60 d 40° C. ([3]; in Polymer P9): 87 ppm
Structure (SMILES): CCCCCCCCn1sc(Cl)c(Cl)c1=O [DCOIT, dichloroctylisothiazolinone]
60 d 40° C., bact. assess., 4th inoculation ([4]; Polymer P1): 0 (moderate growth, max. 400 colonies) | 60 d 40° C., bact. assess., 4th inoculation ([4]; Polymer P2): + | 60 d 40° C., bact. assess., 4th inoculation ([4]; Polymer P3): + | 60 d 40° C., bact. assess., 4th inoculation ([4]; Polymer P4): + | 60 d 40° C., bact. assess., 4th inoculation ([4]; Polymer P5 (HP56)): + | 60 d 40° C., bact. assess., 4th inoculation ([4]; Polymer P6): + | 60 d 40° C., bact. assess., 4th inoculation ([4]; Polymer P7): + | 60 d 40° C., bact. assess., 4th inoculation ([4]; Polymer P8): + | 60 d 40° C., bact. assess., 4th inoculation ([4]; Polymer P9): ++
